In ChEMBL document CHEMBL3102819, “Morpholylureas are a new class of potent and selective inhibitors of the type 5 17-β-hydroxysteroid dehydrogenase (AKR1C3)” (Bioorg Med Chem, 2014) one finds IC50 data, which are given here for 49 molecules.

SMILES strings stand for the structures. Residue numbers refer to the chain shown, from its start.

Test [1] concerns the target T1, Aldo-keto reductase family 1 member C3 (Homo sapiens, UniProt P42330).
T1 sequence (P42330 whole entry): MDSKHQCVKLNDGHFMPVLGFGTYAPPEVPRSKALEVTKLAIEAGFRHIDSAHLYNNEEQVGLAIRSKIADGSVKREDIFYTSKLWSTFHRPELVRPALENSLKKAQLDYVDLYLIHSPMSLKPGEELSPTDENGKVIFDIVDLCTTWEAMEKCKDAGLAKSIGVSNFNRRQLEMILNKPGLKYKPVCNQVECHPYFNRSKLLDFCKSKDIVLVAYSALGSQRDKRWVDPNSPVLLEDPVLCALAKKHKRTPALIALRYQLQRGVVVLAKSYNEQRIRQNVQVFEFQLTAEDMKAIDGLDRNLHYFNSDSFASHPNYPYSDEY
The experiment in a line: Inhibition of AKR1C3 (unknown origin) expressed in human HCT116 cells assessed as formation of PR-104H from PR-104A preincubated for 2 hrs. The class given is cell-based, HCT-116.

The target in test [2] is T2, Aldo-keto reductase family 1 member C4 (Homo sapiens, UniProt P17516).
T2 sequence (P17516 whole entry): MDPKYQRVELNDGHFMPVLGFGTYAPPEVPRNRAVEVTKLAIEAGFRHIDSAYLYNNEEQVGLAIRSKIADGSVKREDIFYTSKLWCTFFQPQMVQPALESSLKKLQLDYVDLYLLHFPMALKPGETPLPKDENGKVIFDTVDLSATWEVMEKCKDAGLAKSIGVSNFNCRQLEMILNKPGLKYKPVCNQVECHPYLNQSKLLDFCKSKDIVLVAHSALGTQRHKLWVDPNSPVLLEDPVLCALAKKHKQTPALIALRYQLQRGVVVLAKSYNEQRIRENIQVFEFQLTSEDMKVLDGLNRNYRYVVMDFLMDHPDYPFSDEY
The experiment in a line: Inhibition of recombinant AKR1C4 (unknown origin) after 1 hr by competitive fluorescence assay.

For test [3], the target named is T1, Aldo-keto reductase family 1 member C3. The experiment in a line: Inhibition of recombinant AKR1C3 (unknown origin) after 1 hr by competitive fluorescence assay.
For test [4], the target named is T3, Aldo-keto reductase family 1 member C1 (Homo sapiens, UniProt Q04828).
T3 sequence (Q04828 whole entry): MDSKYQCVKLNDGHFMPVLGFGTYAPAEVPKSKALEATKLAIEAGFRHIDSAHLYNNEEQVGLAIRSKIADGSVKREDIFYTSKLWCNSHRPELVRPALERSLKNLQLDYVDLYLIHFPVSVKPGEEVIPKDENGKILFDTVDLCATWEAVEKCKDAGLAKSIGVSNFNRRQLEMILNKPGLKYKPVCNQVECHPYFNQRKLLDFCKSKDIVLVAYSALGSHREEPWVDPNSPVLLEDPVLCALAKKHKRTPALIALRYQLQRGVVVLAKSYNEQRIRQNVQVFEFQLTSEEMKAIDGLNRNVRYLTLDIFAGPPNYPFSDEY
The experiment in a line: Inhibition of recombinant AKR1C1 (unknown origin) after 1 hr by competitive fluorescence assay.

The target in test [5] is T4, Aldo-keto reductase family 1 member C2 (Homo sapiens, UniProt P52895).
T4 sequence (P52895 whole entry): T3 sequence (Q04828 whole entry) with T38V, R47H, L54V, C87S, V151M, R170H, Q172L
Kind of test: Inhibition of recombinant AKR1C2 (unknown origin) after 1 hr by competitive fluorescence assay.

By IC50 is commonly meant the concentration that gives 50% inhibition. `O=C(N1CCN(c2ccc(Cl)cc2)CC1)N1CCc2ccccc2C1`: the IC50 was 0.39 µM in test [1]; greater than 30 µM in test [2]; 0.35 µM in test [3]; greater than 30 µM in test [4]; greater than 30 µM in test [5].

On to `O=C(N1CCOCC1)N1CCN(c2cccc(Cl)c2)CC1`, for which the IC50 in test [2] was greater than 30 µM; in test [3], 5.3 µM; in test [4], greater than 30 µM; in test [5], greater than 30 µM.

In the case of `O=C(N1CCSCC1)N1CCN(c2ccc(Cl)cc2)CC1`, the IC50 is greater than 30 µM in test [2], 9.1 µM in test [3], greater than 30 µM in test [4] and greater than 30 µM in test [5].

`CN1CCN(C(=O)N2CCN(c3ccc(Cl)cc3)CC2)CC1`: the IC50 in test [3] was greater than 30 µM.

For the molecule `O=C(N1CCOCC1)N1CCN(c2ccc([N+](=O)[O-])cc2)CC1`, the IC50 in test [2] was greater than 30 µM; in test [3] it was 0.57 µM; in test [4], greater than 30 µM; in test [5] it was greater than 30 µM.

In the case of `O=C(N1CCOCC1)N1CCN(c2ccccc2Cl)CC1`, the IC50 is greater than 30 µM in test [2], 2.3 µM in test [3], greater than 30 µM in test [4] and greater than 30 µM in test [5].

Turning to `S=C(N1CCOCC1)N1CCN(c2ccc(Cl)cc2)CC1`, the IC50 in test [3] was greater than 30 µM.

In the case of `O=C(C1CCOCC1)N1CCN(c2ccc(Cl)cc2)CC1`, the IC50 in test [3] is greater than 30 µM.

For the molecule `O=C(c1ccncc1)N1CCN(c2ccc(Cl)cc2)CC1`, the IC50 in test [3] worked out at 12.6 µM.

Turning to `O=C(N1CCOCC1)N1CCN(c2ccc(C(F)(F)F)cc2)CC1`, the IC50 in test [1] was 0.022 µM; in test [2], greater than 30 µM; in test [3], 0.068 µM; in test [4], greater than 30 µM; in test [5], greater than 30 µM.

As for `COC(=O)c1ccc(N2CCN(C(=O)N3CCOCC3)CC2)cc1`, the IC50 in test [2], in test [3], in test [4] and in test [5] was greater than 30 µM each time.

As for `O=S(=O)(N1CCOCC1)N1CCN(c2ccc(Cl)cc2)CC1`, the IC50 in test [3] was greater than 30 µM.

Turning to `Cc1cc(Cl)ccc1N1CCN(C(=O)N2CCOCC2)CC1`, the IC50 in test [1] was 0.013 µM; in test [2], greater than 30 µM; in test [3], 0.11 µM; in test [4], greater than 30 µM; in test [5], greater than 30 µM.

With `CN(C)C(=O)c1ccc(N2CCN(C(=O)N3CCOCC3)CC2)cc1`, in test [3], the IC50 is greater than 30 µM.

For `O=C(N1CCCCC1)N1CCN(c2ccc(Cl)cc2)CC1`, the IC50 in test [2] was greater than 30 µM; in test [3], 3.8 µM; in test [4], greater than 30 µM; in test [5], greater than 30 µM.

For the molecule `O=C(N1CCOCC1)N1CCN(c2ccc(Br)cn2)CC1`, the IC50 in test [1] is 0.031 µM; in test [2], greater than 30 µM; in test [3], 0.1 µM; in test [4], greater than 30 µM; in test [5], greater than 30 µM.

`O=C(N1CCOCC1)N1CCN(c2ccccc2)CC1`: the half-maximal inhibitory concentration (IC50) in test [2] is greater than 30 µM; in test [3], 6.1 µM; in test [4], greater than 30 µM; in test [5], greater than 30 µM.

On to `O=C(N1CCOCC1)N1CC2CC1CN2c1ccc(Cl)cc1` (stereo not given), for which the IC50 is greater than 30 µM in test [2], 3.7 µM in test [3], greater than 30 µM in test [4] and greater than 30 µM in test [5].

Take `COc1ccc(N2CCN(C(=O)N3CCOCC3)CC2)cc1`: the half-maximal inhibitory concentration (IC50) in test [2] is greater than 30 µM; in test [3], 0.35 µM; in test [4] it was greater than 30 µM; in test [5] it was greater than 30 µM.

As for `C#Cc1ccc(N2CCN(C(=O)N3CCOCC3)CC2)cc1`, the IC50 in test [2] was greater than 30 µM; in test [3], 0.66 µM; in test [4] it was greater than 30 µM; in test [5], greater than 30 µM.

Take `O=C(N1CCOCC1)N1CCN(c2ccc(Br)cc2)CC1`: the IC50 was 0.012 µM in test [1]; greater than 30 µM in test [2]; 0.14 µM in test [3]; greater than 30 µM in test [4]; greater than 30 µM in test [5].

Regarding `O=C(N1CCOCC1)N1CCN(c2ccc3ccccc3c2)CC1`, the IC50 is greater than 30 µM in test [2], 4.9 µM in test [3], greater than 30 µM in test [4] and greater than 30 µM in test [5].

As for `O=C(N1CCOCC1)N1CCN(Cc2ccc(Cl)cc2)CC1`, the concentration for half-maximal inhibition (IC50) is greater than 30 µM in test [2], 0.35 µM in test [3], greater than 30 µM in test [4] and greater than 30 µM in test [5].

With `O=C(O)C1CCN(C(=O)N2CCN(c3ccc(Cl)cc3)CC2)CC1`, the IC50 in test [3] came out at 21.9 µM.

`O=C(c1ccc(Cl)cc1)N1CCN(C(=O)N2CCOCC2)CC1`: the IC50 in test [2] is greater than 30 µM; in test [3], 0.48 µM; in test [4], greater than 30 µM; in test [5], greater than 30 µM.

Turning to `O=C(N1CCOCC1)N1CCN(c2cnc3ccccc3c2)CC1`, the IC50 in test [2] is greater than 30 µM; in test [3] it was 2.9 µM; in test [4], greater than 30 µM; in test [5], greater than 30 µM.

For the molecule `O=C(N1CCN(CCO)CC1)N1CCN(c2ccc(Cl)cc2)CC1`, the IC50 in test [3] is greater than 30 µM.

Turning to `CC(=O)Nc1ccc(N2CCN(C(=O)N3CCOCC3)CC2)cc1`, in test [3], the IC50 was greater than 30 µM.

As for `O=C(O)c1ccc(N2CCN(C(=O)N3CCOCC3)CC2)cc1`, in test [3], the IC50 is greater than 30 µM.

As to `O=C(N1CCN(c2ccc(Cl)cc2)CC1)N1CC[S+]([O-])CC1`, the concentration for half-maximal inhibition (IC50) in test [3] was greater than 30 µM.

Regarding `O=C(N1CCOCC1)N1CCN(c2ccc(-c3ccccc3)cc2)CC1`, the IC50 in test [3] is greater than 30 µM.

`O=C(N1CCOCC1)N1CCN(c2ccc(Cl)nc2)CC1`: the IC50 in test [2] is greater than 30 µM; in test [3], 0.53 µM; in test [4] it was greater than 30 µM; in test [5], greater than 30 µM.

Turning to `NC(=O)c1ccc(N2CCN(C(=O)N3CCOCC3)CC2)cc1`, the IC50 in test [3] was greater than 30 µM.

As to `CNC(=O)c1ccc(N2CCN(C(=O)N3CCOCC3)CC2)cc1`, the IC50 in test [3] was greater than 30 µM.

`CS(=O)(=O)c1ccc(N2CCN(C(=O)N3CCOCC3)CC2)cc1`: the half-maximal inhibitory concentration (IC50) was greater than 30 µM in test [2], 5.52 µM in test [3], greater than 30 µM in test [4] and greater than 30 µM in test [5].

As to `COc1ccccc1N1CCN(C(=O)N2CCOCC2)CC1`, the 50% inhibitory concentration (IC50) in test [3] was determined as 20.3 µM.

Take `O=C(N1CCOCC1)N1CCN(c2ccc(F)cc2)CC1`: the IC50 in test [2] is greater than 30 µM; in test [3], 0.5 µM; in test [4], greater than 30 µM; in test [5], greater than 30 µM.

On to `O=C(N1CCOCC1)N1CCCN(c2ccc(Cl)cc2)CC1`, for which, in test [3], the concentration for half-maximal inhibition (IC50) was 30 µM.

Take `O=C(c1ccccc1)N1CCN(c2ccc(Cl)cc2)CC1`: in test [3], the IC50 is greater than 30 µM.

For the molecule `Cc1ccc(N2CCN(C(=O)N3CCOCC3)CC2)cc1`, the IC50 is greater than 30 µM in test [2], 0.36 µM in test [3], greater than 30 µM in test [4] and greater than 30 µM in test [5].

For `O=C(N1CCOCC1)N1CCN(c2ccc(I)cc2)CC1`, the IC50 in test [1] is 0.01 µM; in test [2], greater than 30 µM; in test [3], 0.067 µM; in test [4] it was greater than 30 µM; in test [5], greater than 30 µM.

For `NC(=O)c1cccc(N2CCN(C(=O)N3CCOCC3)CC2)c1`, the IC50 in test [3] is greater than 30 µM.

For `CS(=O)(=O)Nc1ccc(N2CCN(C(=O)N3CCOCC3)CC2)cc1`, the IC50 in test [3] is greater than 30 µM.

As to `O=C(N1CCOCC1)N1CCN(c2ccccc2C(F)(F)F)CC1`, the IC50 in test [2] was greater than 30 µM; in test [3], 0.7 µM; in test [4], greater than 30 µM; in test [5], greater than 30 µM.

As for `O=C(NC1CCCCC1)N1CCN(c2ccc(Cl)cc2)CC1`, the IC50 in test [3] is greater than 30 µM.

`O=C(Nc1ccccc1)N1CCN(c2ccc(Cl)cc2)CC1`: the IC50 in test [3] was greater than 30 µM.

With `Cc1ccccc1N1CCN(C(=O)N2CCOCC2)CC1`, the IC50 in test [3] was 12.1 µM.

Regarding `O=C(N1CCN(c2ccc(Cl)cc2)CC1)N1CCS(=O)(=O)CC1`, in test [3], the half-inhibitory concentration (IC50) is greater than 30 µM.

`O=C(C1CCCCC1)N1CCN(c2ccc(Cl)cc2)CC1`: the IC50 in test [3] was greater than 30 µM.
